# From the supplement of paper PMC10307832
# Assays:
# Test in all cases: relative viability (nuclei count vs DMSO), 5 days (fraction); higher = more cells survive
# [1] = test system: LOU-NH91
# In short: (§1)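 Dosing by pin tool came one day after lung cancer cell lines were seeded in 1536-well plates, using either one drug or a fixed anchor-drug dose plus five library-drug doses (not always all listed) in √10 steps. After 5 days, nuclei were counted on 4× images. Relative viability is treated-well nuclei count divided by vehicle-well nuclei count, and values are medians of duplicate plates.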
# [2] = test system: NCI-H460
# In short: as §1
# [3] = test system: LU99A
# In short: as §1
# [4] = test system: NCI-H2085
# In short: as §1
# [5] = test system: NCI-H1437
# In short: as §1
# [6] = test system: SK-LU-1
# In short: as §1
# [7] = test system: NCI-H838
# In short: as §1
# [8] = test system: NCI-H1650
# In short: as §1
# [9] = test system: NCI-H1975
# In short: as §1
# [10] = test system: BEN
# In short: as §1
# [11] = test system: NCI-H2342
# In short: as §1
compound,measurement,setting,value
Cc1sc2c(c1C)C(c1ccc(Cl)cc1)=N[C@@H](CC(=O)OC(C)(C)C)c1nnc(C)n1-2 [JQ1] + CCNC(=O)c1noc(-c2cc(C(C)C)c(O)cc2O)c1-c1ccc(CN2CCOCC2)cc1 [Luminespib] (partner 0.01 µM),relative viability,[1]; first compound 0.04 µM,0.371
same,relative viability,[1]; first compound 0.1265 µM,0.371
same,relative viability,[1]; first compound 0.4 µM,0.31
same,relative viability,[1]; first compound 1.265 µM,0.285
same,relative viability,[1]; first compound 4 µM,0.271
same,relative viability,[2]; first compound 0.04 µM,0.031
same,relative viability,[2]; first compound 0.1265 µM,0.0279
same,relative viability,[2]; first compound 0.4 µM,0.0618
same,relative viability,[2]; first compound 1.265 µM,0.032
same,relative viability,[2]; first compound 4 µM,0.0328
same,relative viability,[3]; first compound 0.04 µM,0.285
same,relative viability,[3]; first compound 0.1265 µM,0.246
same,relative viability,[3]; first compound 0.4 µM,0.266
same,relative viability,[3]; first compound 1.265 µM,0.173
same,relative viability,[3]; first compound 4 µM,0.179
same,relative viability,[4]; first compound 0.04 µM,0.387
same,relative viability,[4]; first compound 0.1265 µM,0.434
same,relative viability,[4]; first compound 0.4 µM,0.386
same,relative viability,[4]; first compound 1.265 µM,0.248
same,relative viability,[4]; first compound 4 µM,0.182
same,relative viability,[5]; first compound 0.04 µM,1.1
same,relative viability,[5]; first compound 0.1265 µM,1.09
same,relative viability,[5]; first compound 0.4 µM,1.11
same,relative viability,[5]; first compound 1.265 µM,0.617
same,relative viability,[5]; first compound 4 µM,0.393
same,relative viability,[6]; first compound 0.04 µM,0.199
same,relative viability,[6]; first compound 0.1265 µM,0.177
same,relative viability,[6]; first compound 0.4 µM,0.171
same,relative viability,[6]; first compound 1.265 µM,0.152
same,relative viability,[6]; first compound 4 µM,0.175
same,relative viability,[7]; first compound 0.04 µM,0.289
same,relative viability,[7]; first compound 0.1265 µM,0.288
same,relative viability,[7]; first compound 0.4 µM,0.222
same,relative viability,[7]; first compound 1.265 µM,0.161
same,relative viability,[7]; first compound 4 µM,0.144
same,relative viability,[8]; first compound 0.04 µM,0.21
same,relative viability,[8]; first compound 0.1265 µM,0.199
same,relative viability,[8]; first compound 0.4 µM,0.167
same,relative viability,[8]; first compound 1.265 µM,0.161
same,relative viability,[8]; first compound 4 µM,0.206
same,relative viability,[9]; first compound 0.04 µM,0.212
same,relative viability,[9]; first compound 0.1265 µM,0.137
same,relative viability,[9]; first compound 0.4 µM,0.162
same,relative viability,[9]; first compound 1.265 µM,0.206
same,relative viability,[9]; first compound 4 µM,0.172
same,relative viability,[10]; first compound 0.04 µM,0.259
same,relative viability,[10]; first compound 0.1265 µM,0.329
same,relative viability,[10]; first compound 0.4 µM,0.379
same,relative viability,[10]; first compound 1.265 µM,0.126
same,relative viability,[10]; first compound 4 µM,0.169
same,relative viability,[11]; first compound 0.04 µM,0.633
same,relative viability,[11]; first compound 0.1265 µM,0.569
